Reference: publication PMC9747611 (Hypertension Research, 2022)

Experiment: Safety: adverse events, ECG, vital signs
Type: in vivo, human
Method: Plasma PD measures included concentrations of aldosterone, 18-hydroxycorticosterone, corticosterone, 11-deoxycorticosterone, cortisol (free and total), 11-deoxycortisol, ACTH, sodium, chloride, and potassium. AUCs were calculated using a noncompartmental analysis and the linear trapezoidal/linear interpolation method. Urine PD measures included concentrations of aldosterone, cortisol (free and total), tetrahydroaldosterone, sodium, chloride, potassium, creatinine, and phosphorus. Other PD measures were seated, orthostatic, and positional changes in vital signs, as well as changes in body weight and BMI. Safety assessments involved adverse events, physical examinations, ECGs, orthostatic vital signs, and clinical laboratory evaluations.
Subjects who received placebo were pooled into 2 treatment groups: placebo with low-salt diet and placebo with normal-salt diet. Descriptive statistics were calculated for PK, PD, and safety measures. […] Data are presented as change from baseline in least squares mean (90% CI) AUC0-12h of plasma aldosterone on days 1 and 10. The results of the exploratory dose proportionality power model were assessed using the Smith criteria (0.9031, 1.0969) and the less stringent Hummel criteria (0.6990, 1.3010).

[1] = 0.5 mg once daily 10 days, normal-salt diet, n = 9
[2] = 1.5 mg once daily 10 days, normal-salt diet, n = 9
[3] = 2.5 mg once daily 10 days, low-salt diet, n = 9
[4] = 2.5 mg once daily 10 days, normal-salt diet, n = 6
[5] = 5.0 mg once daily 10 days, low-salt diet, n = 9
[6] = 0.5-5.0 mg once daily for 10 days

CCC(=O)N[C@@H]1CCCc2c(-c3ccc4c(c3)CCC(=O)N4C)cncc21 [baxdrostat]
Abdominal pain [1]: 0 (0.0) n (%) | Anxiety [1]: 0 (0.0) n (%) | Any AE [1]: 1 (11.1) n (%) | Any TEAE [1]: 1 (11.1) n (%) | Any TEAE leading to death [1]: 0 (0.0) n (%) | Any TEAE leading to discontinuation [1]: 0 (0.0) n (%) | Any drug-related treatment-emergent SAE [1]: 0 (0.0) n (%) | Any treatment-emergent SAE [1]: 0 (0.0) n (%) | Back pain [1]: 0 (0.0) n (%) | Constipation [1]: 0 (0.0) n (%) | Dizziness [1]: 0 (0.0) n (%) | Dizziness postural [1]: 0 (0.0) n (%) | Dry throat [1]: 0 (0.0) n (%) | Dysphonia [1]: 0 (0.0) n (%) | Eye irritation [1]: 0 (0.0) n (%) | Headache [1]: 1 (11.1) n (%) | Nausea [1]: 0 (0.0) n (%) | Palpitations [1]: 0 (0.0) n (%) | Presyncope [1]: 0 (0.0) n (%) | Rhinitis [1]: 0 (0.0) n (%) | Ventricular tachycardia [1]: 0 (0.0) n (%) | Viral infection [1]: 0 (0.0) n (%) | Abdominal pain [2]: 0 (0.0) n (%) | Anxiety [2]: 0 (0.0) n (%) | Any AE [2]: 1 (11.1) n (%) | Any TEAE [2]: 1 (11.1) n (%) | Any TEAE leading to death [2]: 0 (0.0) n (%) | Any TEAE leading to discontinuation [2]: 0 (0.0) n (%) | Any drug-related treatment-emergent SAE [2]: 0 (0.0) n (%) | Any treatment-emergent SAE [2]: 0 (0.0) n (%) | Back pain [2]: 0 (0.0) n (%) | Constipation [2]: 1 (11.1) n (%) | Dizziness [2]: 0 (0.0) n (%) | Dizziness postural [2]: 0 (0.0) n (%) | Dry throat [2]: 0 (0.0) n (%) | Dysphonia [2]: 0 (0.0) n (%) | Eye irritation [2]: 0 (0.0) n (%) | Headache [2]: 0 (0.0) n (%) | Nausea [2]: 0 (0.0) n (%) | Palpitations [2]: 0 (0.0) n (%) | Presyncope [2]: 0 (0.0) n (%) | Rhinitis [2]: 0 (0.0) n (%) | Ventricular tachycardia [2]: 0 (0.0) n (%) | Viral infection [2]: 0 (0.0) n (%) | Abdominal pain [3]: 0 (0.0) n (%) | Anxiety [3]: 0 (0.0) n (%) | Any AE [3]: 3 (33.3) n (%) | Any TEAE [3]: 3 (33.3) n (%) | Any TEAE leading to death [3]: 0 (0.0) n (%) | Any TEAE leading to discontinuation [3]: 0 (0.0) n (%) | Any drug-related treatment-emergent SAE [3]: 0 (0.0) n (%) | Any treatment-emergent SAE [3]: 0 (0.0) n (%) | Back pain [3]: 0 (0.0) n (%) | Constipation [3]: 0 (0.0) n (%) | Dizziness [3]: 0 (0.0) n (%) | Dizziness postural [3]: 1 (11.1) n (%) | Dry throat [3]: 0 (0.0) n (%) | Dysphonia [3]: 0 (0.0) n (%) | Eye irritation [3]: 0 (0.0) n (%) | Headache [3]: 1 (11.1) n (%) | Nausea [3]: 0 (0.0) n (%) | Palpitations [3]: 0 (0.0) n (%) | Presyncope [3]: 1 (11.1) n (%) | Rhinitis [3]: 0 (0.0) n (%) | Ventricular tachycardia [3]: 0 (0.0) n (%) | Viral infection [3]: 1 (11.1) n (%) | Abdominal pain [4]: 0 (0.0) n (%) | Anxiety [4]: 1 (16.7) n (%) | Any AE [4]: 3 (50.0) n (%) | Any TEAE [4]: 3 (50.0) n (%) | Any TEAE leading to death [4]: 0 (0.0) n (%) | Any TEAE leading to discontinuation [4]: 0 (0.0) n (%) | Any drug-related treatment-emergent SAE [4]: 0 (0.0) n (%) | Any treatment-emergent SAE [4]: 0 (0.0) n (%) | Back pain [4]: 0 (0.0) n (%) | Constipation [4]: 0 (0.0) n (%) | Dizziness [4]: 1 (16.7) n (%) | Dizziness postural [4]: 2 (33.3) n (%) | Dry throat [4]: 1 (16.7) n (%) | Dysphonia [4]: 0 (0.0) n (%) | Eye irritation [4]: 1 (16.7) n (%) | Headache [4]: 1 (16.7) n (%) | Nausea [4]: 0 (0.0) n (%) | Palpitations [4]: 0 (0.0) n (%) | Presyncope [4]: 0 (0.0) n (%) | Rhinitis [4]: 1 (16.7) n (%) | Ventricular tachycardia [4]: 0 (0.0) n (%) | Viral infection [4]: 0 (0.0) n (%) | Abdominal pain [5]: 1 (11.1) n (%) | Anxiety [5]: 0 (0.0) n (%) | Any AE [5]: 3 (33.3) n (%) | Any TEAE [5]: 3 (33.3) n (%) | Any TEAE leading to death [5]: 0 (0.0) n (%) | Any TEAE leading to discontinuation [5]: 0 (0.0) n (%) | Any drug-related treatment-emergent SAE [5]: 0 (0.0) n (%) | Any treatment-emergent SAE [5]: 0 (0.0) n (%) | Back pain [5]: 1 (11.1) n (%) | Constipation [5]: 0 (0.0) n (%) | Dizziness [5]: 1 (11.1) n (%) | Dizziness postural [5]: 0 (0.0) n (%) | Dry throat [5]: 0 (0.0) n (%) | Dysphonia [5]: 1 (11.1) n (%) | Eye irritation [5]: 0 (0.0) n (%) | Headache [5]: 1 (11.1) n (%) | Nausea [5]: 0 (0.0) n (%) | Palpitations [5]: 0 (0.0) n (%) | Presyncope [5]: 0 (0.0) n (%) | Rhinitis [5]: 0 (0.0) n (%) | Ventricular tachycardia [5]: 0 (0.0) n (%) | Viral infection [5]: 0 (0.0) n (%) | QT prolongation (electrocardiograms) [6]: no QT prolongation | changes in seated heart rate or BP [6]: no clinically significant changes | subjects with a TEAE considered related to the study drug (all baxdrostat groups pooled): 6 (14.3%) | severity of TEAEs (all subjects receiving baxdrostat): mild
